One experiment deals with CD69. Put plainly: Induction of CD69 in human whole blood. The experiment is classed as cell-based. The following applies: heparinized human whole blood, 17 hrs at 37° C.; 100% set to 1 uM resiquimod; average where assay performed multiple times; read-out: hWB CD69 EC50. The procedure: The induction of Type I interferon (IFN) MX-1 genes and the B-cell activation marker CD69 are downstream events that occur upon activation of the TLR7 pathway. The following is a human whole blood assay that measures their induction in response to a TLR7 agonist.
Heparinized human whole blood was harvested from human subjects and treated with test TLR7 agonist compounds at 1 mM. The blood was diluted with RPMI 1640 media and Echo was used to predot 10 nL per well giving a final concentration of 1 uM (10 nL in 10 uL of blood). After mixing on a shaker for 30 sec, the plates were covered and placed in a 37° C. chamber for o/n=17 hrs. Fixing/lysis buffer was prepared (5×→1× in H2O, warm at 37° C.; Cat #BD 558049) and kept the perm buffer (on ice) for later use.
For surface markers staining (CD69): prepared surface Abs: 0.045 ul hCD14-FITC (ThermoFisher Cat #MHCD1401)+0.6 ul hCD19-ef450 (ThermoFisher Cat #48-0198-42)+1.5 ul hCD69-PE (cat #BD555531)+0.855 ul FACS buffer. Added 3 ul/well, spin 1000 rpm for 1 min and mixed on shaker for 30 sec, put on ice for 30 mins. Stop stimulation after 30 min with 70 uL of prewarmed 1× fix/lysis buffer and use Feliex mate to resuspend (15 times, change tips for each plate) and incubate at 37 C for 10 min.
Centrifuge at 2000 rpm for 5 min aspirate with HCS plate washer, mix on shaker for 30 sec and then wash with 70 uL in dPBS and pelleted 2×s (2000 rpm for 5 min) and 50 ul wash in FACS buffer pelleted 1×s (2000 rpm for 5 min). Mix on shaker for 30 sec. For Intracellular markers staining (MX-1): Add 50 ul of BD Perm buffer III and mix on shaker for 30 sec. Incubate on ice for 30 min (in the dark). Wash with 50 uL of FACS buffer 2× (spin @2300 rpm×5 min after perm) followed by mixing on shaker for 30 sec. Resuspended in 20 ul of FACS buffer containing MX1 antibody ( )(4812)-Alexa 647: Novus Biologicals #NBP2-43704AF647) 20 ul FACS bf+0.8 ul hIgG+0.04 ul MX-1. Spin 1000 rpm for 1 min, mix on shaker for 30 se and the samples were incubated at RT in the dark for 45 min followed by washing 2×FACS buffer (spin @2300 rpm×5 min after perm). Resuspend 20 ul (35 uL total per well) of FACS buffer and cover with foil and place in 4° C. to read the following day. Plates were read on iQuePlus. The results were loaded into toolset and […] curves are generated in curve master. The y-axis 100% is set to 1 uM of resiquimod.

In a further experiment the target is T1, human TLR7 (Homo sapiens, UniProt Q9NYK1).
T1 construct: host or cells: HEK-Blue TLR7 cells (engineered human embryonic kidney cells)
T1 sequence (Q9NYK1 27-1049): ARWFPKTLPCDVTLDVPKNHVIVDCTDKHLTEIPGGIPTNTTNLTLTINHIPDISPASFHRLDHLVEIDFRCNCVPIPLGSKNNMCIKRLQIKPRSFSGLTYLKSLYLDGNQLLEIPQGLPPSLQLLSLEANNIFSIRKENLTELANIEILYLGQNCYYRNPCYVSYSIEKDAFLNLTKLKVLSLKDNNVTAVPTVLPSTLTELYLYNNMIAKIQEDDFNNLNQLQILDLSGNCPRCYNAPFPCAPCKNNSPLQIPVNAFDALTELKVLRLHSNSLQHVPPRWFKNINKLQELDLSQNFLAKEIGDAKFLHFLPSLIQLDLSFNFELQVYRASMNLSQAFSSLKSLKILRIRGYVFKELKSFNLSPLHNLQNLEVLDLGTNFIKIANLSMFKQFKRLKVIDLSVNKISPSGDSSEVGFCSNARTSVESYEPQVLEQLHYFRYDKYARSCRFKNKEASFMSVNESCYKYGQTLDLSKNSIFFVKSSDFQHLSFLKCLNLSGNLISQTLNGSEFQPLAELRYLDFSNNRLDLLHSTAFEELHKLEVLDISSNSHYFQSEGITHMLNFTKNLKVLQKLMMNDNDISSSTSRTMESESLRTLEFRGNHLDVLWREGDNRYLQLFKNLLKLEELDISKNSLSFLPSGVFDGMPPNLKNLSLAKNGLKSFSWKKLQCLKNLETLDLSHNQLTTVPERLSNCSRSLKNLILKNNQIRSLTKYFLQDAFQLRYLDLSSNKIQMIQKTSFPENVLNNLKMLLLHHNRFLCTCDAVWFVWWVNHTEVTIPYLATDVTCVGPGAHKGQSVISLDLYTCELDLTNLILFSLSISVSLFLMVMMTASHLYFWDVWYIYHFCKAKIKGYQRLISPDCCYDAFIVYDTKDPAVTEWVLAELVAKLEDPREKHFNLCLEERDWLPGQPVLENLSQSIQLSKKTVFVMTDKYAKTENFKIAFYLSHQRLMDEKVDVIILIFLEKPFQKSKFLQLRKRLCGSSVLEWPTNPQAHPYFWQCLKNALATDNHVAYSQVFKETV
As to the kind of experiment: Human TLR7 agonist activity (reporter) assay. The experiment is classed as cell-based. The note with it: HEK-Blue TLR7 cells, SEAP reporter, 18 h treatment; average where assay performed multiple times; read-out: hTLR7 Agonism EC50. The method, then: This procedure describes a method for assaying human TLR7 (hTLR7) agonist activity of the compounds disclosed in this specification.
HEK-Blue™ TLR7 cells were added to each well of a 384-well tissue-culture plate (15,000 cells per well) and incubated 16-18 h at 37° C., 5% CO2. Compounds (100 nl) were dispensed into wells containing the HEK-Blue™ TLR cells and the treated cells were incubated at 37° C., 5% CO2. After 18 h treatment ten microliters of freshly-prepared Quanti-Blue” reagent (Invivogen) was added to each well, incubated for 30 min (37° C., 5% CO2) and SEAP levels measured using an Envision plate reader (OD=620 nm). The half maximal effective concentration values (EC50; compound concentration which induced a response halfway between the assay baseline and maximum) were calculated.

Usually EC50 stands for the concentration giving half of the maximal effect. As to `CCCCNc1nc(N)nc2cnn(Cc3ccc(C4(O)CC4)cc3OC)c12` [Compound 118, 1-(4-{[5-amino-7-(butylamino)-1H-pyrazolo[4,3-d]pyrimidin-1-yl]methyl}-3-methoxyphenyl)cyclopropan-1-ol], the EC50 with CD69 is 276 nM; on human TLR7, 257 nM.

Source of the values: patent publication US20230348468A1, “1H-PYRAZOLO[4,3-d]PYRIMIDINE COMPOUNDS AS TOLL-LIKE RECEPTOR 7 (TLR7) AGONISTS” (BRISTOL-MYERS SQUIBB COMPANY, priority 2020, published 2023).
